{
  "source": "patent US9707273B2",
  "about": "“Peptides for use in the topical treatment of retinal neurodegenerative diseases, in particular in early stages of diabetic retinopathy and other retinal diseases in which neurodegeneration plays an essential role” (FUNDACIÓ HOSPITAL UNIVERSITARI VALL D'HEBRON—INSTITUT DE …, priority 2013, dated 2017)",
  "origin": "cited, not measured here",
  "details": "administered in the form of eye drops; Aiello et al. 2008",
  "data": [
    {"smiles": "Cc1cc(-c2cc(O)ccc2Cl)cc2nnc(Nc3ccc(OCCN4CCCC4)cc3)nc12", "note": "[TG100572, 4-chloro-3-(5-methyl-3-{[4-(2-pyrrolidin-I-ylethoxy)phenyl]amino}-1,2,4-benzotriazin-7-yl)phenol]", "values": [
      {"measurement": "reaching the target in the retina after eye drops", "value": "able to reach the target in the retina"}
    ]}
  ]
}
